Source: US10393744B2, “Peptides for targeting colorectal cancer, and medical use thereof” (UNIVERSITY OF ULSAN FOUNDATION FOR INDUSTRY COOPERATION, priority 2014, dated 2019)

What was measured:
[1] = system: Radio-sensitive colorectal cancer tissue of patient (case C87); experiment: In vivo/ex vivo imaging and phage elution of Cy5.5-labeled peptide-expressing phages in mouse model transplanted with patient's colorectal cancer tissue (Example 4); parameters: species or system nude mouse; settings: for in vivo ROI: Cy5.5 fluorescence total flux standardized to Cy5.5 dye control; for pfu/mg (concentration of eluted phages relative to weight of cancer tissue) / ex vivo ROI: extracted cancer tissue; for ex vivo ROI: standardized to Cy5.5 dye control
From the text: (§1) Then, the distributed cancer tissue was kept in a specific preservative solution and transferred directly to an animal chamber, so as to maintain a state in which the cancer tissue was not separated from a patient yet. After an NOD/SCID mouse was anesthetized via intraperitoneal injection of anesthetics, the cancer tissue was cut into pieces each having a size of 3×3 mm. Next, each of both flanks of the NOD/SCID mouse was transplanted with a piece of the cut cancer tissues, and sutured. The NOD/SCID mouse was then recovered on a heating pad for about 2 hours (conditions of the preservative solution: HBSS containing 100 IU/ml penicillin, 100 μg/ml streptomycin, 100 μg/ml gentamicin, 2.5 μg/ml amphotericin B, and 5% fetal bovine serum). After completion of the transplantation, the NOD/SCID mouse was raised until tumors were formed. Meanwhile, the formation and growth of tumors were checked at least once a week. When the transplanted cancer tissues grew to a size of at least 500 mm^3, an extraction process was performed thereon. Then, the extracted cancer tissues were each cut into pieces each having a size of 3×3 mm for subculturing. A nude mouse was anesthetized via intraperitoneal injection of anesthetics, and a piece of the cut cancer tissues was transplanted subcutaneously on the right thigh of the nude mouse. A transplantation site was changed from the flank to the thigh so that irradiation can be locally done without affecting other organs during irradiation. That is, a finally used mouse model transplanted with a patient's colorectal cancer tissue in the present invention was a mouse model established in a way that a cancer tissue that underwent subculturing four times was re-transplanted to form a cancer tissue. When the size of the cancer tissue was increased to about 250 mm^3, only the cancer tissue was irradiated with 2 grays (Gy) of radiation. After having recovery time for no longer than 24 hours, in vivo peptide screening was performed. Here, a non-irradiated population, which is a control group, was also subjected to screening in a separate manner.
(§2) In detail, regarding in vivo imaging verification, the peptide-expressing phage was amplified, and a process of linking a fluorescent probe (Cy5.5) was performed. In particular, 1 μg/μl of N-hydroxysuccinimide esters of Cy5.5 (Amersham) was added to 1 mL of bicarbonate buffer (pH 8.3) having the phage concentration of 10^12 plaque forming units (pfu), and then, in a condition where a dark environment was maintained, a phage-surface protein was linked to the Cy5.5 fluorescent probe at room temperature for 3 hours. That is, amine groups of the phage-surface protein were chemically linked to N-hydroxysuccinimide esters of the Cy5.5 fluorescent probe via a covalent bond. The peptide-expressing phages to which the Cy5.5 fluorescent probe was linked were each obtained by precipitation with 170 μl of 20% (w/v) PEG 8000/2.5 M NaCl solution and purification. To determine a proportion of the Cy5.5 fluorescent probe linked to each of the finally obtained phage samples, an IVIS spectrum imaging system (Xenogen) was used for measurement, and region of interest (ROI) values were determined using the software program of a corresponding device.
(§3) In addition, on the last day of the in vivo imaging, the cancer tissues were each extracted, to thereby obtain ex vivo images thereof.

[2] = system: Radio-resistant colorectal cancer tissue of patient (case C65); experiment: as above; parameters: species or system nude mouse; settings: for in vivo ROI: Cy5.5 fluorescence total flux standardized to Cy5.5 dye control; for pfu/mg (concentration of eluted phages relative to weight of cancer tissue) / ex vivo ROI: extracted cancer tissue; for ex vivo ROI: standardized to Cy5.5 dye control
From the text: as §1, §2, §3

[3] = case C87, non-irradiated population
[4] = case C65, non-irradiated population
[5] = case C65, irradiated population (2 Gy)
[6] = case C87, irradiated population (2 Gy)

Substance	in vivo ROI [1, 3]	pfu/mg (concentration of eluted phages relative to weight of cancer tissue) [1, 3]	ex vivo ROI [1, 3]	in vivo ROI [2, 4]	ex vivo ROI [2, 4]	also measured
AFKSPSG [E14]	0.70	2.89 pfu/mg	0.55			
AIKNTKS [E8]	0.90	15.00 pfu/mg	0.49			
ASKSTHD [A7]				1.80	1.08	pfu/mg (concentration of eluted phages relative to weight of cancer tissue) [2, 4]: 27.14 pfu/mg
Cy5.5 [reference compound]	1.00		1.00	1.00	1.00	in vivo ROI [2, 5]: 1.00; ex vivo ROI [2, 5]: 1.00; in vivo ROI [1, 6]: 1.00; ex vivo ROI [1, 6]: 1.00
DETSGQI [E12]	1.24	5.56 pfu/mg	1.07			
DLLHRGA [A9]				2.35	0.56	pfu/mg (concentration of eluted phages relative to weight of cancer tissue) [2, 4]: 54.17 pfu/mg
DNSKLVE [F4]						in vivo ROI [1, 6]: 1.59; pfu/mg (concentration of eluted phages relative to weight of cancer tissue) [1, 6]: 69.18 pfu/mg; ex vivo ROI [1, 6]: 3.11
DVSGNW [A8]				2.99	1.57	pfu/mg (concentration of eluted phages relative to weight of cancer tissue) [2, 4]: 8.56 pfu/mg
GGNSNQR [E5]	0.92	15.96 pfu/mg	0.76			
GQSGARF [F8]						in vivo ROI [1, 6]: 1.18; pfu/mg (concentration of eluted phages relative to weight of cancer tissue) [1, 6]: 6.10 pfu/mg; ex vivo ROI [1, 6]: 1.92
GYSSFNR [B6]	1.12	3.96 pfu/mg	0.62			in vivo ROI [2, 5]: 3.03; pfu/mg (concentration of eluted phages relative to weight of cancer tissue) [2, 5]: 211.76 pfu/mg; ex vivo ROI [2, 5]: 2.06
HKTEHRS [E18]	0.69	4.15 pfu/mg	0.21			
KISLPHN [E13]	1.50	1.22 pfu/mg	0.93			
KLTQMM [F1]						in vivo ROI [1, 6]: 1.63; pfu/mg (concentration of eluted phages relative to weight of cancer tissue) [1, 6]: 6.73 pfu/mg; ex vivo ROI [1, 6]: 2.39
LGSVGRD [F7]						in vivo ROI [1, 6]: 1.61; pfu/mg (concentration of eluted phages relative to weight of cancer tissue) [1, 6]: 141.04 pfu/mg; ex vivo ROI [1, 6]: 3.97
LKLGEKW [B7]						in vivo ROI [2, 5]: 1.72; pfu/mg (concentration of eluted phages relative to weight of cancer tissue) [2, 5]: 3.45 pfu/mg; ex vivo ROI [2, 5]: 0.62; in vivo ROI [1, 6]: 1.00; pfu/mg (concentration of eluted phages relative to weight of cancer tissue) [1, 6]: 1.90 pfu/mg; ex vivo ROI [1, 6]: 2.92
LKTSGTY [E15]	0.77	6.13 pfu/mg	0.47			
LQPKASQ [A6]				2.75	1.47	pfu/mg (concentration of eluted phages relative to weight of cancer tissue) [2, 4]: 15.4 pfu/mg
LTGSVNK [E10]	1.19	2.25 pfu/mg	1.00			
MARYMSA [A10]				2.26	1.58	pfu/mg (concentration of eluted phages relative to weight of cancer tissue) [2, 4]: 183.16 pfu/mg

Substance	in vivo ROI [1, 3]	pfu/mg (concentration of eluted phages relative to weight of cancer tissue) [1, 3]	ex vivo ROI [1, 3]	in vivo ROI [2, 4]	ex vivo ROI [2, 4]	also measured
MNFIQKN [E11]	1.05	4.43 pfu/mg	0.34			
NGNSNTL [F9]						in vivo ROI [1, 6]: 1.77; pfu/mg (concentration of eluted phages relative to weight of cancer tissue) [1, 6]: 95.24 pfu/mg; ex vivo ROI [1, 6]: 4.45
NTGSPYE [A2, 7-amino-acid loop peptide expressed on M13 phage, tested as Cy5.5-labeled phage]	1.13	1.55 pfu/mg	0.77	2.04	1.61	pfu/mg (concentration of eluted phages relative to weight of cancer tissue) [2, 4]: 181.48 pfu/mg; in vivo ROI [1, 6]: 1.15; pfu/mg (concentration of eluted phages relative to weight of cancer tissue) [1, 6]: 4.75 pfu/mg; ex vivo ROI [1, 6]: 2.64
NTWMKSK [A11]				1.93	0.95	pfu/mg (concentration of eluted phages relative to weight of cancer tissue) [2, 4]: 6.71 pfu/mg
QLWQKEQ [F5]						in vivo ROI [1, 6]: 1.63; pfu/mg (concentration of eluted phages relative to weight of cancer tissue) [1, 6]: 144.55 pfu/mg; ex vivo ROI [1, 6]: 3.72
QQTKNYY [E7]	2.02	58.32 pfu/mg	1.38			
RSTGSSC [E16]	0.50	2.14 pfu/mg	0.24			
SFFPFST [F3]						in vivo ROI [1, 6]: 1.07; pfu/mg (concentration of eluted phages relative to weight of cancer tissue) [1, 6]: 22.31 pfu/mg; ex vivo ROI [1, 6]: 2.64
SHMEYPR [A1, 7-amino-acid loop peptide expressed on M13 phage, tested as Cy5.5-labeled phage]	1.68	74.12 pfu/mg	1.72	1.77	1.27	in vivo ROI [2, 5]: 2.27; pfu/mg (concentration of eluted phages relative to weight of cancer tissue) [2, 5]: 230 pfu/mg; ex vivo ROI [2, 5]: 1.89; pfu/mg (concentration of eluted phages relative to weight of cancer tissue) [2, 4]: 136.36 pfu/mg
SNVYDHN [A3]				1.62	0.67	pfu/mg (concentration of eluted phages relative to weight of cancer tissue) [2, 4]: 34.8 pfu/mg
STEHTRS [A4]				3.20	1.83	pfu/mg (concentration of eluted phages relative to weight of cancer tissue) [2, 4]: 264.86 pfu/mg
STMNGKV [B1]						in vivo ROI [2, 5]: 1.52; pfu/mg (concentration of eluted phages relative to weight of cancer tissue) [2, 5]: 16.67 pfu/mg; ex vivo ROI [2, 5]: 1.48
SWGDRIL [A5]				2.16	1.52	pfu/mg (concentration of eluted phages relative to weight of cancer tissue) [2, 4]: 51.38 pfu/mg
TAFSLGK [E6]	0.78	4.24 pfu/mg	0.77			
TNPYPLD [F10]						in vivo ROI [1, 6]: 1.91; pfu/mg (concentration of eluted phages relative to weight of cancer tissue) [1, 6]: 7.86 pfu/mg; ex vivo ROI [1, 6]: 1.74
TVRSSAE [B3]						in vivo ROI [2, 5]: 2.38; pfu/mg (concentration of eluted phages relative to weight of cancer tissue) [2, 5]: 195.40 pfu/mg; ex vivo ROI [2, 5]: 1.63
TVRTSAV [E9]	1.27	86.40 pfu/mg	1.20			
VPSQKSK [B4]						in vivo ROI [2, 5]: 2.12; pfu/mg (concentration of eluted phages relative to weight of cancer tissue) [2, 5]: 20.62 pfu/mg; ex vivo ROI [2, 5]: 1.36
VQMPAHS [E4]	0.84	5.00 pfu/mg	0.94			
YVSKNNS [E17]	1.66	204.00 pfu/mg	1.29			
